Source: the supplement of paper PMC10307832

Assays:
Test in all cases: relative viability (nuclei count vs DMSO), 5 days (fraction); higher = more cells survive
XMD14-99 + Bortezomib = compound: CN1CCN(CC1)C2=CC(=C(C=C2)NC3=NC(=C(S3)C(=O)C4=C(C=CC=C4Cl)Cl)N)OC [XMD14-99] + CC(C)C[C@H](NC(=O)[C@H](Cc1ccccc1)NC(=O)c1cnccn1)B(O)O [Bortezomib] (partner 0.002 µM)
Procedure, shortened: (§1)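 Relative viability is defined as nuclei in treated wells over nuclei in vehicle wells. Duplicate plates were run and medians reported. Lung cancer cell lines in 1536-well plates were dosed by pin tool one day after seeding, with one drug or with a fixed anchor-drug dose plus five library-drug doses (not always all listed) in √10 steps, and nuclei were counted after 5 days.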

XMD14-99 + Luminespib = compound: CN1CCN(CC1)C2=CC(=C(C=C2)NC3=NC(=C(S3)C(=O)C4=C(C=CC=C4Cl)Cl)N)OC [XMD14-99] + CCNC(=O)c1noc(-c2cc(C(C)C)c(O)cc2O)c1-c1ccc(CN2CCOCC2)cc1 [Luminespib] (partner 0.01 µM)
Procedure, shortened: as §1

XMD14-99 + Olaparib = compound: CN1CCN(CC1)C2=CC(=C(C=C2)NC3=NC(=C(S3)C(=O)C4=C(C=CC=C4Cl)Cl)N)OC [XMD14-99] + O=C(c1cc(Cc2n[nH]c(=O)c3ccccc23)ccc1F)N1CCN(C(=O)C2CC2)CC1 [Olaparib] (partner 8 µM)
Procedure, shortened: as §1

AZD1208 + Crizotinib = compound: N[C@@H]1CCCN(c2c(/C=C3\SC(=O)NC3=O)cccc2-c2ccccc2)C1 [AZD1208] + C[C@@H](Oc1cc(-c2cnn(C3CCNCC3)c2)cnc1N)c1c(Cl)ccc(F)c1Cl [Crizotinib] (partner 1 µM)
Procedure, shortened: as §1

## UMC-11
XMD14-99 + Bortezomib; first compound 0.08 µM
  relative viability: 0.701
XMD14-99 + Bortezomib; first compound 0.8 µM
  relative viability: 0.775
XMD14-99 + Bortezomib; first compound 2.53 µM
  relative viability: 0.673
XMD14-99 + Bortezomib; first compound 8 µM
  relative viability: 0.526
XMD14-99 + Luminespib; first compound 0.08 µM
  relative viability: 0.98
XMD14-99 + Luminespib; first compound 0.8 µM
  relative viability: 1.05
XMD14-99 + Luminespib; first compound 2.53 µM
  relative viability: 0.98
XMD14-99 + Luminespib; first compound 8 µM
  relative viability: 0.828
XMD14-99 + Olaparib; first compound 0.08 µM
  relative viability: 0.363
XMD14-99 + Olaparib; first compound 0.8 µM
  relative viability: 0.313
XMD14-99 + Olaparib; first compound 2.53 µM
  relative viability: 0.345
XMD14-99 + Olaparib; first compound 8 µM
  relative viability: 0.288
AZD1208 + Crizotinib; first compound 0.08 µM
  relative viability: 0.553
AZD1208 + Crizotinib; first compound 0.253 µM
  relative viability: 0.502
AZD1208 + Crizotinib; first compound 0.8 µM
  relative viability: 0.426
AZD1208 + Crizotinib; first compound 2.53 µM
  relative viability: 0.426
AZD1208 + Crizotinib; first compound 8 µM
  relative viability: 0.275
